Source: PubChem BioAssay (NCI)
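Five concentrations, 48 hours, 96-well plates. TGI: total growth inhibition.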 Where a SMILES comes first, the peptide text is derived from it. The star is where a group is joined. Boc = CC(C)(C)OC(=O)*; OBn = c1ccc(CO*)cc1

How the values were obtained:
Test in all cases: NCI tumour cell line growth inhibition, 48 h
SNB-19 CNS = tested on: SNB-19 CNS
CCRF-CEM leukemia = tested on: CCRF-CEM leukemia
CAKI-1 renal = tested on: CAKI-1 renal
LXFL 529 NSCLC = tested on: LXFL 529 NSCLC
DMS 114 small cell lung = tested on: DMS 114 small cell lung
SNB-78 CNS = tested on: SNB-78 CNS
KM20L2 colon = tested on: KM20L2 colon
DLD-1 colon = tested on: DLD-1 colon
DMS 273 small cell lung = tested on: DMS 273 small cell lung
M19-MEL melanoma = tested on: M19-MEL melanoma
HOP-18 NSCLC = tested on: HOP-18 NSCLC
XF 498 CNS = tested on: XF 498 CNS

SMILES	TGI (SNB-19 CNS)	TGI (CCRF-CEM leukemia)	TGI (CAKI-1 renal)	also measured
Cc1nn(-c2ccccc2)c2nc3ccc(Cl)cc3c(-c3ccccc3)c12	> 100 µM	> 100 µM	–	–
C=CCN1C[C@@H](C)N([C@@H](c2ccc(C(=O)N(CC)CC)cc2)c2cccc(OC)c2)C[C@@H]1C	> 100 µM	> 100 µM	> 100 µM	–
Nc1ccc(OCCCc2c(-c3ccccc3)nc(N)[nH]c2=O)cc1	> 100 µM	> 100 µM	> 100 µM	–
Cc1ccc(NC(=O)/C(=N\NC(N)=O)c2c(O)c3ccccc3[nH]c2=O)cc1	> 100 µM	> 100 µM	> 100 µM	–
CC(=O)OC1[C@@H](OC(C)=O)CN(OCc2ccccc2)C[C@H]1OC(C)=O (stereo not given in full)	> 100 µM	> 100 µM	> 100 µM	–
CC(=O)OC1[C@H](n2ccnc2)C[C@H]2[C@@H]3CC=C4CC(N5CCCC5)CC[C@]4(C)[C@H]3CC[C@]12C (stereo not given in full)	> 100 µM	> 100 µM	> 100 µM	–
CC(C)CC(NC(=O)C(Cc1ccccc1)NC(=O)C(Cc1ccccc1)NC(=O)OC(C)(C)C)C(=O)OCc1ccccc1 (stereo not drawn) (Boc-Phe-Phe-Leu-OBn; configuration not given here)	> 100 µM	> 100 µM	> 100 µM	–
Cc1cccc(C(=O)O)c1CC1NCCC2c3ccccc3NC12 (stereo not given)	> 100 µM	> 100 µM	> 100 µM	–
O=c1[nH]c(=O)n2n1C1C=CC2CC1	> 100 µM	> 100 µM	> 100 µM	–
COCn1c(C)c(C)c2c(=O)oc(C)nc21	> 100 µM	> 100 µM	45 µM	–
NC(C(=O)OC(=O)c1ccccc1)C(=O)OC(=O)c1ccccc1	> 100 µM	> 100 µM	> 100 µM	–
O=c1c2c3c(sc2nc2n1N=C(c1ccc([N+](=O)[O-])cc1)CS2)CCCC3	–	> 100 µM	> 100 µM	–
O=P1(Oc2ccccc2)NCc2ncccc2O1 (stereo not given)	> 100 µM	> 100 µM	> 100 µM	–
O=C(CCc1ccc(O)cc1)NCCCNC(=O)CCc1ccc(O)cc1	> 100 µM	> 100 µM	> 100 µM	–
CC(C)(SCc1ccccc1)C(N)C(=O)O (stereo not given)	> 100 µM	> 100 µM	> 100 µM	–
NC(N)=NS(=O)(=O)c1ccc(NC(=O)c2ccc3nc4ccccc4c(N)c3c2)cc1	> 100 µM	> 100 µM	> 100 µM	–
CC(=O)c1ccccc1NS(=O)(=O)c1ccc2nc(C)n(NS(=O)(=O)c3ccccc3C(C)=O)c(=O)c2c1	> 100 µM	> 100 µM	> 100 µM	–
COc1ccc(-c2nc3cc(C(F)(F)F)ccc3n2CC2CCCN3CCCCC23)cc1 (stereo not given)	–	31.4 µM	59.6 µM	–
CCOC(=O)C1=C(C)NC(C)=C(C(=O)OCC)C1c1ccc(C)cc1	> 100 µM	–	> 100 µM	–

SMILES	TGI (SNB-19 CNS)	TGI (CCRF-CEM leukemia)	TGI (CAKI-1 renal)	also measured
CCOC(=O)N1N(c2ccccc2)C(=O)C1(c1ccccc1)c1ccccc1	> 100 µM	> 100 µM	> 100 µM	–
CCN(CC)CC(=O)Nc1ccc2c(c1)C(=O)c1ccc(NC(=O)CN(CC)CC)cc1C2=O	81.3 µM	> 100 µM	> 100 µM	TGI (LXFL 529 NSCLC): 49 µM; TGI (DMS 114 small cell lung): 37.4 µM; TGI (SNB-78 CNS): > 100 µM; TGI (KM20L2 colon): > 100 µM; TGI (DLD-1 colon): > 100 µM; TGI (DMS 273 small cell lung): > 100 µM; TGI (M19-MEL melanoma): > 100 µM
Cc1cc(=O)c2ccccc2n1CCCCCCCCCCn1c(C)cc(=O)c2ccccc21	> 100 µM	26.7 µM	36.1 µM	–
O=C1C=C2CC[C@H]3[C@@H]4CC[C@H](Oc5c6ccccc6nc6ccccc56)[C@H]4CC[C@@H]3[C@H]2CC1	> 100 µM	60.1 µM	> 100 µM	–
C=CCn1c(-c2ccc(Cl)cc2Cl)csc1=Nc1c(C)n(C)n(-c2ccccc2)c1=O	24.7 µM	38.1 µM	31.7 µM	–
CN(C)/C=C/c1c2c(nc3ccccc13)C(=O)c1ccccc1C2=O	4.88 µM	3.36 µM	6.31 µM	–
CC(C)(O)CCc1ccc(O)c2c(=O)c3c(O)c4c(cc3oc12)O[C@H]1OC=C[C@@]41O	> 59.5 µM	> 100 µM	< 0.0318 µM	–
O=[N+]([O-])c1ccc(O)c(C=NCC2CCCN3CCCCC23)c1 (stereo not given)	> 100 µM	–	> 100 µM	–
Cc1nc2ccccc2n1Cc1nnc2n1N=C(c1ccccc1)CS2	> 100 µM	> 100 µM	> 100 µM	–
NC(=S)N/N=C1\CCCCC1C(O)(C(F)(F)Cl)C(F)(F)Cl (stereo not given)	> 10 µM	> 10 µM	–	–
COc1ccc2c(c1)CCN1C3=C(CCC3)C(=O)C[C@@H]21	> 100 µM	> 100 µM	> 100 µM	TGI (LXFL 529 NSCLC): > 100 µM; TGI (DMS 114 small cell lung): > 100 µM; TGI (SNB-78 CNS): > 100 µM; TGI (HOP-18 NSCLC): > 100 µM; TGI (XF 498 CNS): > 100 µM; TGI (KM20L2 colon): > 100 µM; TGI (DMS 273 small cell lung): > 100 µM; TGI (M19-MEL melanoma): > 100 µM
CCCCN1C(=O)CS/C1=N/Nc1nc2c([nH]1)c(=O)n(C)c(=O)n2C	> 100 µM	54.8 µM	> 100 µM	–
CC(=O)C1=C(C)N(c2ccccc2)C2(O)C=CC(=O)C3=C(O)c4ccccc4C(=O)C312 (stereo not given)	38.6 µM	> 100 µM	33.3 µM	–
Cc1ccc([N+](=O)[O-])cc1S(=O)(=O)Nc1ccc(C2=NN(S(=O)(=O)c3cc([N+](=O)[O-])ccc3C)C(c3ccco3)C2)cc1 (stereo not given)	> 100 µM	> 100 µM	> 100 µM	–
COc1ccc(/C=C2\CN(C)CC3C2=NN(c2ccccc2)C3c2ccc(OC)cc2)cc1 (stereo not given)	> 100 µM	> 100 µM	> 100 µM	–
O[C@H]1[C@H](O)[C@@H](Cn2nnc(-c3ccccc3)c2-c2ccccc2)OCO[C@@H]1Cn1nnc(-c2ccccc2)c1-c1ccccc1	55.4 µM	> 34.5 µM	14.2 µM	–
O=C1C2CC=CCC2C(=O)N1n1c(Cc2ccccc2)n[nH]c1=O (stereo not given)	> 100 µM	> 100 µM	> 100 µM	–
O=C1CCCC[C@H]1C(O)CC1CC(=O)N(c2ccccc2)C(=O)C1 (stereo not given in full)	> 100 µM	> 100 µM	> 100 µM	–
